Like-named read-outs stand apart in the source and are kept apart here.
What was measured:
[1] = Stimulation test (sense of taste, solid put on the tongue); assay type: in vivo; set-up: key to sense of taste stimulation: 0: No stimulation is felt.; 1: There is a stimulation but weak.; 2: There is a strong stimulation; conditions: for sense of taste stimulation: 5 mg of solid on the tongue, one score per subject, five subjects
Procedure: Each of five subjects has evaluated the sense of taste of the 5-aminolevulinic acid phosphate obtained in Example 1, in accordance with the following criteria by directly putting 5 mg of its solid on the tongue.
• 0: No stimulation is felt. • 1: There is a stimulation but weak. • 2: There is a strong stimulation.
The sense of taste was evaluated in the same manner as in Example 6, except that 5 mg of solid of 5-aminolevulinic acid hydrochloride was used.

[2] = system: New Zealand white rabbits (males), shaved uninjured skin; conditions: in vivo
Procedure: Using three New Zealand white rabbits (males), a solution prepared by dissolving 0.5 g of 5-aminolevulinic acid phosphate in 0.5 ml of distilled water (pH 3.1) was applied for 4 hours to a 2.5 cm square area of the shaved uninjured skin of each animal which was then observed for 1, 24, 48 and 72 hours.

[3] = Test on the generation of silver chloride precipitation with silver nitrate; assay type: physicochemical; conditions: 0.5 g with 0.5 g of silver nitrate in 10 ml of ion exchange water, 5 minutes
Procedure: In 10 ml of ion exchange water, 0.5 g of 5-aminolevulinic acid phosphate and 0.5 g of silver nitrate were dissolved, the mixture was allowed to stand still for 5 minutes, and conditions of the liquid was observed. […] In this connection, 0.5 g of 5-aminolevulinic acid hydrochloride and 0.5 g of silver nitrate were dissolved in 10 ml of ion exchange water and allowed to stand still for 5 minutes, and conditions of the liquid was observed.
In 10 ml of ion exchange water, 0.5 g of 5-aminolevulinic acid nitrate and 0.5 g of silver nitrate were dissolved, the mixture was allowed to stand still for 5 minutes, and conditions of the liquid was observed.
In this connection, 0.5 g of 5-aminolevulinic acid hydrochloride and 0.5 g of silver nitrate were dissolved in 10 ml of ion exchange water and allowed to stand still for 5 minutes, and conditions of the liquid was observed.
In 10 ml of ion exchange water, 0.5 g of 5-aminolevulinic acid p-toluenesulfonate and 0.5 g of silver nitrate were dissolved, the mixture was allowed to stand still for 5 minutes, and conditions of the liquid was observed.

apple variety “Fuji” = experiment: Coloring test of apple; assay type: in vivo
Procedure: The 5-aminolevulinic acid phosphate obtained in Example 1 was dissolved in ion exchange water to the predetermined concentration shown in the following table. A spreader (“Approach BI” manufactured by Maruwa Biochemical) was added to the liquid to a concentration of 0.1% by weight. The pH was adjusted using phosphoric acid.
An aqueous 5-aminolevulinic acid hydrochloride solution was prepared in the same manner, except that the above-described 5-aminolevulinic acid phosphate was changed to 5-aminolevulinic acid hydrochloride and the phosphoric acid for pH adjustment was changed to hydrochloric acid.
The thus prepared liquid was sprayed at a ratio of 2 liters per branch on three main branches where young fruits of an apple variety “Fuji” bored but not yet colored into red (September 15). About 2 months thereafter (November 6), the apples were harvested and their coloring degree was examined. A color meter CR-200 manufactured by MINOLTA CAMERA was used for the measurement of color.
The 5-aminolevulinic acid nitrate obtained in Example 16 was dissolved in ion exchange water to the predetermined concentration shown in Table 16. A spreader (“Approach BI” manufactured by Maruwa Biochemical) was added to the liquid to a concentration of 0.1% by weight. The pH was adjusted using nitric acid.
A solution was prepared in the same manner, except that the above-described 5-aminolevulinic acid nitrate was changed to 5-aminolevulinic acid hydrochloride and the nitric acid was changed to hydrochloric acid.
The 5-aminolevulinic acid p-toluenesulfonate obtained in Example 23 was dissolved in ion exchange water to the predetermined concentration shown in Table 24. A spreader (“Approach B1” manufactured by Maruwa Biochemical) was added to the liquid to a concentration of 0.1% by weight. The pH was adjusted using p-toluenesulfonic acid.
A solution was prepared in the same manner, except that the above-described 5-aminolevulinic acid p-toluenesulfonate was changed to 5-aminolevulinic acid hydrochloride and the p-toluenesulfonic acid was changed to hydrochloric acid.

[4] = system: spiderwort Commelina communis; experiment: Plant activating effect, foliar application, spiderwort; assay type: in vivo; conditions: 21 days, 12 plants
Procedure: A total of 12 pots, in which 600 g of volcanic ash soil was packed in a porcelain pot of 12 cm in inner diameter, and 1 plant of a spiderwort Commelina communis grown to a height of 15 cm was planted in 1 pot, were prepared and placed under a constant temperature environment of 20° C., and foliar application treatment was carried out once a day using the following application liquids. Conditions of the leaves 21 days thereafter were observed.

Rice seeds (Akinishiki) = experiment: Plant growth regulation effect; assay type: in vivo; conditions: ratio to untreated plot
Procedure: Rice seeds (Akinishiki) were soaked in Benlate (manufactured by Sumika Takeda Engei) (200 times) aqueous solution for a whole day and night and then incubated at 30° C. under a dark condition to effect hastening of germination. Seeds of even pigeon breast stage were selected, 10 seeds were inserted using a pair of tweezers into a groove on one expanded polyethylene sheet, which was made using a cutter knife, and this sheet was floated on a tall Petri dish filled with 150 ml of 5-aminolevulinic acid phosphate of respective concentrations shown in Table 11 and incubated at 25° C. for 24 hours under 5,000 lux continuous light irradiation. The number of repetitions was set to 3 repetitions for each concentration. Examination was carried out three days thereafter, and lengths of the first leaf sheath and seminal root in each plot were measured to calculate their ratios to those in the untreated plot and to calculate average values thereof.

[5] = male, New Zealand white, rabbit, 1 h
[6] = male, New Zealand white, rabbit, 24 h
[7] = male, New Zealand white, rabbit, 48 h
[8] = male, New Zealand white, rabbit, 72 h

SMILES: NCC(=O)CCC(=O)O.O=P(O)(O)O [5-aminolevulinic acid phosphate, 5-aminolevulinic Acid Phosphate]
- stimulation on the tongue in comparison with hydrochloride ([1]; 5 mg of solid): strong stimulation was not found
- sense of taste stimulation [1]: 1
- Formation of dropsy and edema (formed numbers), per rabbit ([2]; male, New Zealand white, 1 h): 0
- Formation of erythema and dry crust (formed numbers), per rabbit ([2]; male, New Zealand white, 1 h): 1
- Formation of dropsy and edema (formed numbers), per rabbit ([2]; male, New Zealand white, 24 h): 0
- Formation of erythema and dry crust (formed numbers), per rabbit ([2]; male, New Zealand white, 24 h): 1
- Formation of dropsy and edema (formed numbers), per rabbit ([2]; male, New Zealand white, 48 h): 0
- Formation of erythema and dry crust (formed numbers), per rabbit ([2]; male, New Zealand white, 48 h): 0
- Formation of dropsy and edema (formed numbers), per rabbit ([2]; male, New Zealand white, 72 h): 0
- Formation of erythema and dry crust (formed numbers), per rabbit ([2]; male, New Zealand white, 72 h): 0
- Total formed numbers after 24 hours and 72 hours ([2]; male, New Zealand white, rabbit): Total formed numbers after 24 hours and 72 hours: 3
- Formation of dropsy and edema (formed numbers) [2, 5]: 0
- Formation of dropsy and edema, Total of three rabbits [2, 5]: 0
- Formation of erythema and dry crust (formed numbers) [2, 5]: 0
- Formation of erythema and dry crust, Total of three rabbits [2, 5]: 3
- skin reaction observed ([2]; male, New Zealand white, rabbit, 4 h): very slight red spots were observed within 24 hours, but became normal when observed after 48 hours
- Formation of dropsy and edema (formed numbers) [2, 6]: 0
- Formation of dropsy and edema, Total of three rabbits [2, 6]: 0
- Formation of erythema and dry crust (formed numbers) [2, 6]: 0
- Formation of erythema and dry crust, Total of three rabbits [2, 6]: 3
- Formation of dropsy and edema (formed numbers) [2, 7]: 0
- Formation of dropsy and edema, Total of three rabbits [2, 7]: 0
- Formation of erythema and dry crust (formed numbers) [2, 7]: 0
- Formation of erythema and dry crust, Total of three rabbits [2, 7]: 0
- Formation of dropsy and edema (formed numbers) [2, 8]: 0
- Formation of dropsy and edema, Total of three rabbits [2, 8]: 0
- Formation of erythema and dry crust (formed numbers) [2, 8]: 0
- Formation of erythema and dry crust, Total of three rabbits [2, 8]: 0
- skin stimulation ([2]; rabbit): skin stimulation was not observed
- stimulation classification (United Nations recommendation GHS) ([2]; rabbit): does not come under a stimulus substance
- generation of precipitate [3]: Generation of the precipitate was not found
- Coloring, L (apple variety “Fuji”; 100 ppm (pH 5.0)): 42.37
- Coloring, a (apple variety “Fuji”; 100 ppm (pH 5.0)): 27.45
- Coloring, b (apple variety “Fuji”; 100 ppm (pH 5.0)): 14.54
- Coloring, L (apple variety “Fuji”; 200 ppm (pH 5.4)): 42.43
- Coloring, a (apple variety “Fuji”; 200 ppm (pH 5.4)): 31.06
- Coloring, b (apple variety “Fuji”; 200 ppm (pH 5.4)): 14.63
- Coloring of red compared with 5-aminolevulinic acid hydrochloride (apple variety “Fuji”; in vivo): Coloring of red was denser
- plants judged 0: Abnormality was not found on the leaf surface ([4]; 1 ppm in tap water): 6 plants
- plants judged 1: A region discolored to yellow was found on the leaf surface ([4]; 1 ppm in tap water): 5 plants
- plants judged 2: A necrotic region was found on the leaf surface ([4]; 1 ppm in tap water): 1 plant^ plants
- plants judged 0: Abnormality was not found on the leaf surface ([4]; 10 ppm in tap water): 7 plants
- plants judged 1: A region discolored to yellow was found on the leaf surface ([4]; 10 ppm in tap water): 3 plants
- plants judged 2: A necrotic region was found on the leaf surface ([4]; 10 ppm in tap water): 2 plants
- plants judged 0: Abnormality was not found on the leaf surface ([4]; 100 ppm in tap water): 6 plants
- plants judged 1: A region discolored to yellow was found on the leaf surface ([4]; 100 ppm in tap water): 4 plants
- plants judged 2: A necrotic region was found on the leaf surface ([4]; 100 ppm in tap water): 2 plants
- First leaf sheath length (%) (Rice seeds (Akinishiki); 1 ppm): 102%
- Seminal root length (%) (Rice seeds (Akinishiki); 1 ppm): 106%
- First leaf sheath length (%) (Rice seeds (Akinishiki); 10 ppm): 106%
- Seminal root length (%) (Rice seeds (Akinishiki); 10 ppm): 108%
- First leaf sheath length (%) (Rice seeds (Akinishiki); 100 ppm): 101%
- Seminal root length (%) (Rice seeds (Akinishiki); 100 ppm): 101%

SMILES: Cl.NCC(=O)CCC(=O)O [5-aminolevulinic acid hydrochloride, reference compound]
- sense of taste stimulation [1]: 2
- judgement by the OECD Guideline from pH (animal test not carried out) ([2]; rabbit): judged corrosive
- generation of precipitate [3]: Generation of the precipitate was found
- Coloring, L (apple variety “Fuji”; 100 ppm (pH 5.0)): 42.28
- Coloring, a (apple variety “Fuji”; 100 ppm (pH 5.0)): 25.96
- Coloring, b (apple variety “Fuji”; 100 ppm (pH 5.0)): 14.72
- Coloring, L (apple variety “Fuji”; 200 ppm (pH 4.8)): 42.34
- Coloring, a (apple variety “Fuji”; 200 ppm (pH 4.8)): 30.92
- Coloring, b (apple variety “Fuji”; 200 ppm (pH 4.8)): 14.41
- plants judged 0: Abnormality was not found on the leaf surface ([4]; 1 ppm in tap water): 2 plants
- plants judged 1: A region discolored to yellow was found on the leaf surface ([4]; 1 ppm in tap water): 7 plants
- plants judged 2: A necrotic region was found on the leaf surface ([4]; 1 ppm in tap water): 3 plants
- plants judged 0: Abnormality was not found on the leaf surface ([4]; 10 ppm in tap water): 5 plants
- plants judged 1: A region discolored to yellow was found on the leaf surface ([4]; 10 ppm in tap water): 5 plants
- plants judged 2: A necrotic region was found on the leaf surface ([4]; 10 ppm in tap water): 2 plants
- plants judged 0: Abnormality was not found on the leaf surface ([4]; 100 ppm in tap water): 5 plants
- plants judged 1: A region discolored to yellow was found on the leaf surface ([4]; 100 ppm in tap water): 4 plants
- plants judged 2: A necrotic region was found on the leaf surface ([4]; 100 ppm in tap water): 3 plants
- First leaf sheath length (%) (Rice seeds (Akinishiki); 1 ppm): 107%
- Seminal root length (%) (Rice seeds (Akinishiki); 1 ppm): 103%
- First leaf sheath length (%) (Rice seeds (Akinishiki); 10 ppm): 101%
- Seminal root length (%) (Rice seeds (Akinishiki); 10 ppm): 96%
- First leaf sheath length (%) (Rice seeds (Akinishiki); 100 ppm): 98%
- Seminal root length (%) (Rice seeds (Akinishiki); 100 ppm): 109%

Reference: patent US8471061B2 (priority 2004, dated 2013)
